Laboratory results from publication PMC7284125, “Identification of annotated bioactive molecules that impair motility of the blood fluke Schistosoma mansoni” (International Journal for Parasitology: Drugs and Drug …, 2020).
Like-named read-outs stand apart in the source and are kept apart here. Each block holds one compound with its values, some of them ahead of it.

Columns and labels:
[1] = test system: S. mansoni schistosomulae; test: Motility assay on schistosomulae (pixel displacement, relative to DMSO control); format: cell-based, Schistosoma mansoni; settings: for activity at 1 µM: Schistosoma mansoni, read-out: Fractional motility
Method in brief: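 Mechanically transformed S. mansoni schistosomulae (200/well) in Opti-MEM with 5% dialyzed FBS were exposed to compounds at 1 and 10 μM for 24 h at 37 °C, 5% CO2. Motility filmed at 10 frames/s for 1 min and quantified by pixel displacement relative to DMSO-treated controls.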

[2] = test system: S. mansoni schistosomulae; test: Phenotypic primary screen assay on schistosomulae (phenotype; viability by methylene blue dye exclusion); format: cell-based, Schistosoma mansoni; settings: for effect on viability of schistosomulae in words: 24 h incubation, five days; for Phenotype: three-day-old schistosomulae, 10 μM, 24 h, estimated 5 days post compound exposure
Method in brief: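 Parasites lacking contraction/relaxation cycles and showing dark internal granulations counted as dead. Movement and body shape were compared with DMSO-treated controls under a stereo microscope at 24 h and at five days of exposure. Larvae came from infected snails shed under light for 2 h at 32 °C.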

S. mansoni adult worms = test: Motility assay on adult parasites (pixel displacement, relative to DMSO control); format: cell-based, Schistosoma mansoni; settings: 10 μM; for motility phenotype in words: adults, long-term after washout
Method in brief: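 Unpaired adult worms from mice 6 weeks post-infection kept in OPTI-MEM with 5% dialyzed FBS and exposed to compounds at 1 and 10 μM for 24 h. Motility filmed 1 min at 10 frames/s, quantified by pixel displacement versus DMSO-treated worms; recovery followed up to five days after washout.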

[3] = test system: S. mansoni schistosomulae; test: Phenotypic primary screen assay on schistosomulae (phenotype; viability by methylene blue dye exclusion); format: cell-based; settings: Schistosoma mansoni; three-day-old schistosomulae, 10 μM, 24 h; calculated 5 days post compound exposure; read-out: Viability (%)
schistosomulae [4] = test system: schistosomulae; set-up: method as in Panic et al., 2015b; settings: 72 h incubation at 10 μM; ref Panic et al., 2015b; cited from earlier work
schistosomulae [5] = test system: schistosomulae; set-up: method as in El-Sakkary et al., 2018; settings: 20 min exposure, 10 μM; ref El-Sakkary et al., 2018; cited from earlier work
SmD2 = SmD2 (Schistosoma mansoni, UniProt G4LUJ1); test: cell-based; format: cell-based
[6] = set-up: method as in Rybczynska et al., 2006; settings: 1 mg/kg, normotensive rats; ref Rybczynska et al., 2006; cited from earlier work
human CaSR = test system: human CaSR; set-up: method as in Nemeth et al., 2001; settings: ref Nemeth et al., 2001; cited from earlier work
schistosomes = test system: schistosomes; set-up: method as in de Almeida et al., 2016; settings: 12.5–100 μM; ref de Almeida et al., 2016; cited from earlier work
[7] = 120 h, schistosomulae, secondary screen, 24h exposure, read at D5, 1 µM
[8] = schistosomulae, secondary screen, 24h exposure, read at D1, 1 µM
[9] = schistosomulae, 1h exposure, read at D1, 10 µM
[10] = schistosomulae, 1h exposure, read at D5, 10 µM
[11] = schistosomulae, 3h exposure, read at D1, 10 µM
[12] = schistosomulae, 3h exposure, read at D5, 10 µM
[13] = schistosomulae, 6h exposure, read at D1, 10 µM
[14] = schistosomulae, secondary screen, 24h exposure, read at D1, 10 µM
[15] = schistosomulae, secondary screen, 24h exposure, read at D5, 10 µM
[16] = secondary screen, D1, Female adult worms
[17] = secondary screen, D1, Male adult worms
[18] = secondary screen, D5, Female adult worms
[19] = secondary screen, D5, Male adult worms

Chain of SmD2 (G4LUJ1 entry or part of it): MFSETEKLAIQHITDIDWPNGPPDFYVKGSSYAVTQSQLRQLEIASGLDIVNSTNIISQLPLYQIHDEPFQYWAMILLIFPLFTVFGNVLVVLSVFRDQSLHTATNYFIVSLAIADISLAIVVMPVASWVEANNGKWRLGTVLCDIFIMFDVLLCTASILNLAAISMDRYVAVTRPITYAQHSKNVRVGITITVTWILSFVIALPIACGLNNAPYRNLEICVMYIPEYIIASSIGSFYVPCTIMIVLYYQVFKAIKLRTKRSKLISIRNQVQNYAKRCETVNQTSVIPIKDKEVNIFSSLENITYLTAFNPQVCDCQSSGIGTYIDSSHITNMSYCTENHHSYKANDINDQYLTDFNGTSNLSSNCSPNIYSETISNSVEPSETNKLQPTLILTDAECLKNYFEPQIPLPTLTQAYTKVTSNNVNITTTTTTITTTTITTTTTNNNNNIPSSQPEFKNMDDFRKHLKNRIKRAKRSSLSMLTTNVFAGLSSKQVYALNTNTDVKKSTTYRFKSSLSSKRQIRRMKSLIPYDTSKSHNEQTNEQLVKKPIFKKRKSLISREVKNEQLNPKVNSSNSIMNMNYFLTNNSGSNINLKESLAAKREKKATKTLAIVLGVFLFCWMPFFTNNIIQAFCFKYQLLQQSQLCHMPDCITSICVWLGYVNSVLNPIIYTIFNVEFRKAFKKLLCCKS

motility in extended assay with reduced incubation times, in words ([1]; three-day old schistosomulae, incubation 1 h, 3 h, 6 h): significant and sustained hypomotility
motility phenotype in words (S. mansoni adult worms): strongly impaired movement
SMILES: COC(=O)C1=C(C)NC(C)=C(C(=O)OCCN2CCN(C(c3ccccc3)c3ccccc3)CC2)C1c1cccc([N+](=O)[O-])c1 (centres unmarked) [Manidipine]
activity at 1 µM [1, 7]: -59%
activity at 1 µM [1, 8]: -79%
Fractional motility [1, 9]: -0.94
Fractional motility [1, 10]: -0.59
Fractional motility [1, 11]: -0.33
Fractional motility [1, 12]: -0.75
Fractional motility [1, 13]: -0.74
hypomotility ([1]; schistosomulae, all tested concentrations until five days after drug washout): ≥ 59%
Fractional motility [1, 14]: -0.78
Fractional motility [1, 15]: -0.85
effect on viability of schistosomulae in words [2]: no larval mortality was observed
Phenotype [2]: abnormal morphology, big, granulated
Fractional motility (S. mansoni adult worms; [16]): 0.19
Fractional motility (S. mansoni adult worms; [17]): -0.20
Fractional motility (S. mansoni adult worms; [18]): -0.91
Fractional motility (S. mansoni adult worms; [19]): -0.98
viability at 10 µM [3]: 97%
activity on schistosomulae in words (schistosomulae [4]): schistosomulicidal

SMILES: CN(C)CCCN1c2ccccc2Sc2ccc(Cl)cc21 [Chlorpromazine]
hypermotility compared to control schistosomulae ([1]; 10 μM): > 10 fold
activity at 1 µM [1, 7]: 95%
activity at 1 µM [1, 8]: 785%
Fractional motility [1, 14]: 13.78
Fractional motility [1, 15]: 3.15
Phenotype [2]: elongated
Fractional motility (S. mansoni adult worms; [16]): 0.57
Fractional motility (S. mansoni adult worms; [17]): 2.38
Fractional motility (S. mansoni adult worms; [18]): -0.45
Fractional motility (S. mansoni adult worms; [19]): 0.24
viability at 10 µM [3]: 96%
peak motility relative to control schistosomulae (schistosomulae [5]): exceeding 50 fold

SMILES: CC(C)(Cc1ccc2ccccc2c1)NC[C@@H](O)COc1cccc(Cl)c1C#N [NPS-2143]
Fractional motility ([1]; 1h, D1, 10 µM): -0.86
Fractional motility ([1]; 1h, D5, 10 µM): -0.00164
Fractional motility ([1]; 3h, D1, 10 µM): 0.27
Fractional motility ([1]; 3h, D5, 10 µM): -0.84
Fractional motility ([1]; 6h, D1, 10 µM): 14.69
Fractional motility ([1]; 6h, D5, 10 µM): -0.27
Fractional motility ([1]; NPS-2143 and analogs, 24h, D1, 1 µM): -0.50
Fractional motility ([1]; NPS-2143 and analogs, 24h, D1, 10 µM): 49.26
Fractional motility ([1]; NPS-2143 and analogs, 24h, D5, 1 µM): -0.09
Fractional motility ([1]; NPS-2143 and analogs, 24h, D5, 10 µM): -0.99
activity at 1 µM ([1]; 120 h, Selleckchem customized library secondary screen, 24h, D5, 1 µM): -9%
activity at 1 µM ([1]; Selleckchem customized library secondary screen, 24h, D1, 1 µM): -50%
Fractional motility ([1]; Selleckchem customized library secondary screen, 24h, D1, 10 µM): 49.26
Fractional motility ([1]; Selleckchem customized library secondary screen, 24h, D5, 10 µM): -0.99
hypermotility relative to control ([1]; schistosomulae, after 24 h incubation): up to 50 fold
motility phenotype in words ([1]; schistosomulae, long-term, five days after compound washout): complete paralysis
effect on viability of schistosomulae in words [2]: no effect on viability
Phenotype [2]: big, granulated
Fractional motility (S. mansoni adult worms; adult female worms, D1): -0.33
Fractional motility (S. mansoni adult worms; adult female worms, D5): -0.92
Fractional motility (S. mansoni adult worms; adult male worms, D1): -0.52
Fractional motility (S. mansoni adult worms; adult male worms, D5): -0.30
Fractional motility (S. mansoni adult worms; [16]): -0.33
Fractional motility (S. mansoni adult worms; [17]): -0.52
Fractional motility (S. mansoni adult worms; [18]): -0.92
Fractional motility (S. mansoni adult worms; [19]): -0.30
viability at 10 µM [3]: 82%
inhibition at 10 µM (SmD2; HEK293, SmD2 cells, 10 μM compound, 50 μM EPN, read-out: inhibition of EPN-evoked luminescence): 91.1%
IC50 (SmD2; inhibition of EPN-evoked luminescence, concentration-response assay, read-out: IC50): 2.53 ± 0.28 nM
effect on blood pressure [6]: significantly increases blood pressure
IC50 (human CaSR): 43 nM

SMILES: C=C1C(=O)O[C@H]2[C@H]1CC/C(C)=C/CC[C@@]1(C)O[C@@H]21 [(-)-Parthenolide]
activity at 1 µM [1, 7]: -16%
activity at 1 µM [1, 8]: -3%
Fractional motility [1, 9]: -0.61
Fractional motility [1, 10]: -0.72
Fractional motility [1, 11]: -0.27
Fractional motility [1, 12]: -0.10
Fractional motility [1, 13]: 3.66
Fractional motility ([1]; schistosomulae, 6h exposure, read at D5, 10 µM): -0.86
Fractional motility [1, 14]: 0.67
Fractional motility [1, 15]: -0.99
effect on viability of schistosomulae in words [2]: total schistosomulicid action
Phenotype [2]: big, dark, granulated
hypomotility (S. mansoni adult worms; adult male and female parasites, long-term): 49.5%
motility phenotype in words (S. mansoni adult worms): severely paralyzed adults
Fractional motility (S. mansoni adult worms; [16]): -0.36
Fractional motility (S. mansoni adult worms; [17]): 0.14
Fractional motility (S. mansoni adult worms; [18]): -0.65
Fractional motility (S. mansoni adult worms; [19]): -0.34
mortality (schistosomes): 100%
viability at 10 µM [3]: 0%
